Measured values published in publication PMC7321065, “Discovery of New Schiff Bases Tethered Pyrazole Moiety: Design, Synthesis, Biological Evaluation, and Molecular Docking Study as Dual Targeting DHFR/DNA Gyrase Inhibitors with Immunomodulatory Activity” (Molecules, 2020).

What was measured:
Enterococcus faecalis = test: Inhibition zone, agar plate diffusion; format: cell-based; conditions: Ef, mm ± standard deviation, sample at 0.5 mg/mL, read-out: Inhibition zone (IZ)
Procedure: (§1) Antimicrobial activities of the newly formed Schiff bases (6a–d, 7a–d, 8a–d, and 9a–d) and reference drugs were evaluated against three Gram-positive, three Gram-negative, and two fungi strain at Al-Azhar University, Cairo, Egypt. The inhibition zones (IZ, in mm ± standard deviation) and the minimal inhibitory concentration (MIC) (μg/mL) were determined by the conventional paper disk diffusion method.
(§2) In Vitro Antimicrobial Activities
(§3) The antimicrobial activities inhibition zone (IZ, mm±standard deviation) of pyrazole Schiff bases ( 6a-d , 7a-d, 8a-d and 9a-d ) was measurement according to the agar plate diffusion method. Briefly, 100 µl of the […]
(§4) […] of each sample (at 0.5 mg/mL) was added to each well (10 mm diameter holes cut in the agar gel). The plates were incubated for 24 h at 37 °C (for bacteria and yeast) and for 72 h at 27 °C (for filamentous fungi), each test was repeated three times. After incubation, the microorganism's growth was observed. […]
(§5) drugs while Amphotericin B was used as standard antifungal drug. The resulting inhibition zone diameters were measured in millimeters and used as criterion for the antimicrobial activity. Solvent controls (DMSO) were included in every experiment as negative controls. DMSO was used for dissolving […]
(§6) the tested microorganisms. […]

Bacillus subtilis = test: Inhibition zone, agar plate diffusion; format: cell-based; conditions: Bs, mm ± standard deviation, sample at 0.5 mg/mL, read-out: Inhibition zone (IZ)
Procedure: as §1, §2, §3, §4, §5, §6

Pseudomonas aeruginosa = test: Inhibition zone, agar plate diffusion; format: cell-based; conditions: Pa, mm ± standard deviation, sample at 0.5 mg/mL, read-out: Inhibition zone (IZ)
Procedure: as §1, §2, §3, §4, §5, §6

Escherichia coli = test: Inhibition zone, agar plate diffusion; format: cell-based; conditions: Ec, mm ± standard deviation, sample at 0.5 mg/mL, read-out: Inhibition zone (IZ)
Procedure: as §1, §2, §3, §4, §5, §6

Staphylococcus aureus = test: Inhibition zone, agar plate diffusion; format: cell-based; conditions: Sa, mm ± standard deviation, sample at 0.5 mg/mL, read-out: Inhibition zone (IZ)
Procedure: as §1, §2, §3, §4, §5, §6
(§7) Bacteria were grown on nutrient agar medium, while fungi and yeast were grown on Sabouraud agar medium. […]

Fusarium oxysporum = test: Inhibition zone, agar plate diffusion; format: cell-based; conditions: Fo, mm ± standard deviation, sample at 0.5 mg/mL, read-out: Inhibition zone (IZ)
Procedure: as §1, §2, §3, §4, §5, §6, §7

Candida albicans = test: Inhibition zone, agar plate diffusion; format: cell-based; conditions: Ca, mm ± standard deviation, sample at 0.5 mg/mL, read-out: Inhibition zone (IZ)
Procedure: as §1, §2, §3, §4, §5, §6, §7

Salmonella typhi = test: Inhibition zone, agar plate diffusion; format: cell-based; conditions: Salmonella enterica, St, mm ± standard deviation, sample at 0.5 mg/mL, read-out: Inhibition zone (IZ)
Procedure: as §1, §2, §3, §4, §5, §6, §7

Compound | zone of inhibition at 500 µg/mL (Enterococcus faecalis) | zone of inhibition at 500 µg/mL (Bacillus subtilis) | zone of inhibition at 500 µg/mL (Pseudomonas aeruginosa) | zone of inhibition at 500 µg/mL (Escherichia coli) | zone of inhibition at 500 µg/mL (Staphylococcus aureus) | zone of inhibition at 500 µg/mL (Fusarium oxysporum) | zone of inhibition at 500 µg/mL (Candida albicans) | zone of inhibition at 500 µg/mL (Salmonella typhi) | melting point
COc1ccc(Nc2n[nH]c(N=Cc3c(C)nn(-c4ccccc4)c3Cl)c2C(N)=O)cc1 [7a, 5-((5-Chloro-3-methyl-1-phenyl-1H-pyrazol-4-yl)methyleneamino)-3-(p-methoxyphenylamino)-1H-pyrazole-4-carboxamide] | 21 ± 0.11 mm | 20 ± 0.4 mm | 20 ± 0.15 mm | 18 ± 0.2 mm | 19 ± 0.31 mm | 15 ± 0.3 mm | 13 ± 0.35 mm | 18 ± 0.16 mm | 270 to 272 °C
COc1ccc(Nc2n[nH]c(N=Cc3cc(OC)c(OC)c(OC)c3)c2C(=O)Nc2ccc(Cl)cc2)cc1 [9d, N-(p-Chlorophenyl)-3-(p-methoxyphenylamino)-5-(3,4,5-trimethoxybenzylideneamino)-1H-pyrazole-4-carboxamide] | < 8 mm | 18 ± 0.12 mm | < 8 mm | 15 ± 0.96 mm | 16 ± 0.54 mm | 14 ± 0.38 mm | 18 ± 0.2 mm | 12 ± 0.61 mm | 213 to 215 °C
